A value given as a limit tells only on which side of the number the result lay.

In general, IC50 refers to the midpoint of a concentration-inhibition curve.

For the first experiment, the target named is CRBN-DDB1 (Homo sapiens, UniProt Q96SW2). As to the kind of experiment: HTRF binding of compounds to CRBN.
CRBN-DDB1, sequence (Q96SW2 whole entry): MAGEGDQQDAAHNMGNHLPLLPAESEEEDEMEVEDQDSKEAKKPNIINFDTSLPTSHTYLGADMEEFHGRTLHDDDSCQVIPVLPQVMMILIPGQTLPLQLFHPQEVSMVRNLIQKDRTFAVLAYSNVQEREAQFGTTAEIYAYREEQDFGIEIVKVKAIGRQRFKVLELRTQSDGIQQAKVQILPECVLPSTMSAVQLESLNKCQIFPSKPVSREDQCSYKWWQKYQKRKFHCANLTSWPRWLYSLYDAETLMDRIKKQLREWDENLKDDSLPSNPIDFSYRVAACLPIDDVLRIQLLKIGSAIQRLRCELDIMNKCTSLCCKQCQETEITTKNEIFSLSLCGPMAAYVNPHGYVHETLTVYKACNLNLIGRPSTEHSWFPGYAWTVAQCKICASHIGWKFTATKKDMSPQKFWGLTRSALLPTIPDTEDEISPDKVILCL
CRBN-DDB1, sequence (Q16531 whole entry partner): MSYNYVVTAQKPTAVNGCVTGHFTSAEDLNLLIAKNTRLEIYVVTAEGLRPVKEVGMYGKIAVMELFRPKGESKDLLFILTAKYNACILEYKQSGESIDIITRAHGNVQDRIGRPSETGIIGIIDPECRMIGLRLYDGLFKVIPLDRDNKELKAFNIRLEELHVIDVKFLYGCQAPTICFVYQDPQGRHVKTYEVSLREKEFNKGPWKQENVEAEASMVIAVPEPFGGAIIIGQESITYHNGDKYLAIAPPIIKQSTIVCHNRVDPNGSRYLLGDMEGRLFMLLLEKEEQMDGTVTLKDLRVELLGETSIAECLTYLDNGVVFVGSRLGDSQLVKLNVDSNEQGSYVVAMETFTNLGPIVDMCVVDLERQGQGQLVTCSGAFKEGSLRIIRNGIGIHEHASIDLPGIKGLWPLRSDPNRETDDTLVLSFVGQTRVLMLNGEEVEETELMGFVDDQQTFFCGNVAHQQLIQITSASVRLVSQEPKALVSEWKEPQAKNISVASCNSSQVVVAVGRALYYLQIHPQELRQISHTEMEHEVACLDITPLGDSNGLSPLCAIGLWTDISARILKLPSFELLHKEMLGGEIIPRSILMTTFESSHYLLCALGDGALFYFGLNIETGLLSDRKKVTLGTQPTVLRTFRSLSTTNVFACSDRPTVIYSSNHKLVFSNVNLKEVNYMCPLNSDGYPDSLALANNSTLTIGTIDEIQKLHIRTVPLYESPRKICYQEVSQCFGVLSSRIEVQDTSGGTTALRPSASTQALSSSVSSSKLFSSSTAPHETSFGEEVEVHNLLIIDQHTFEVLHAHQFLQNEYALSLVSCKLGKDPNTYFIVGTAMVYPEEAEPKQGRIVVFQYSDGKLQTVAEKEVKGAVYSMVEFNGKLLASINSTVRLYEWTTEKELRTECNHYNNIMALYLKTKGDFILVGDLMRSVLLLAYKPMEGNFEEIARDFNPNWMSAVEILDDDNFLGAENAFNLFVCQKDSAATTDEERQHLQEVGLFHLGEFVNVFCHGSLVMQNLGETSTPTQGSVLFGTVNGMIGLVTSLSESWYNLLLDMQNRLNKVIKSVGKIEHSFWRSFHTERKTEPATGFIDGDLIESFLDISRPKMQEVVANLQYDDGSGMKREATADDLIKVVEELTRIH
Details: not given
As for the experimental part:
Compound activity was monitored in a Homogenous Time-Resolved Fluorescence (HTRF) assay using 1-[5-({2-[2-(2-{[2-(2,6-dioxopiperidin-3-yl)-1,3-dioxo-2,3-dihydro-1H-isoindol-4-yl]oxy}acetamido)ethoxy]ethyl}carbamoyl)pentyl]-3,3-dimethyl-2-[(1E,3E)-5-[(2E)-1,3,3-trimethyl-5-sulfo-2,3-dihydro-1H-indol-2-ylidene]penta-1,3-dien-1-yl]-3H-indol-1-ium-5-sulfonate as a fluorescent probe. […] Compounds were stored in dry, ambient temperatures at 10 mM. A 10-point, 1:3 dilution series was prepared from 10 mM stock concentrations in Echo-compatible LDV plates. 10 nL of each compound dilution series was dispensed into assays wells using an Echo 650 (Labcyte inc. USA). […] The assay was then allowed to incubate for 30 min at ambient temperature after transferring compound. […] Analysis and IC50 values were derived using KNIME analytics (KNIME Zurich) transformation and fitting within Collaborative Drug Discovery (Collaborative Drug Discovery USA). Ki was derived from the geometric mean of the IC50 values using the Cheng-Prustoff transformation.
`CCOc1cc(NC(=O)OCc2ccc3c(c2)C(=O)N(C2CCC(=O)NC2=O)C3)c(F)cc1C` (stereo not drawn) [Compound 228] yielded a half-maximal inhibitory concentration (IC50) of less than 100 nM.
On the same count and under the same terms, the same measure for `O=C1CCC(N2Cc3ccc(COC(=O)NC45CC(F)(C4)C5)cc3C2=O)C(=O)N1` (stereo not drawn) [Compound 190]: 100 to 1000 nM; for `Cc1cc(F)c(NC(=O)OCc2ccc3c(c2)C(=O)N(C2CCC(=O)NC2=O)C3)cc1C(F)(F)F` (stereo not drawn) [Compound 233]: 100 to 1000 nM; for `Cc1cc(NC(=O)OCc2ccc3c(c2)C(=O)N(C2CCC(=O)NC2=O)C3)cc(Cl)c1C#N` (stereo not drawn) [Compound 177, (2-(2,6-dioxopiperidin-3-yl)-3-oxoisoindolin-5-yl)methyl(3-chloro-4-cyano-5-methylphenyl)carbamate]: 100 to 1000 nM.
As to `O=C1CCC(N2Cc3ccc(COC(=O)Nc4ccc(C(O)C(F)(F)F)nc4)cc3C2=O)C(=O)N1` (stereo not drawn) [Compound 238], the IC50 was 100 to 1000 nM.
Take `Cc1cc2c(c(NC(=O)OCc3ccc4c(c3)C(=O)N(C3CCC(=O)NC3=O)C4)c1)OCC2` (stereo not drawn) [Compound 182]: the IC50 lay within 100 to 1000 nM.
On the same count and under the same terms, the same measure for `C[C@@H]1CCCN1c1ccc(NC(=O)OCc2ccc3c(c2)C(=O)N(C2CCC(=O)NC2=O)C3)nc1` (stereo partly drawn) [Compound 192]: less than 100 nM.

The experiment is the same for the next values; noted with them: read-out: HTRF Class (Cereblon binding, HTRF IC50).
Turning to `CC1(c2ccc(NC(=O)OCc3ccc4c(c3)C(=O)N(C3CCC(=O)NC3=O)C4)cc2Cl)COC1` (stereo not drawn) [Compound 236, (2-(2,6-dioxopiperidin-3-yl)-3-oxoisoindolin-5-yl)methyl (3-chloro-4-(3-methyloxetan-3-yl)phenyl)carbamate], the IC50 is less than 100 nM.
Still for that read-out and setting: the same measure for `O=C1CCC(N2Cc3ccc(COC(=O)Nc4ccc(C5CCC5)cc4F)cc3C2=O)C(=O)N1` (stereo not drawn) [Compound 164, (2-(2,6-dioxopiperidin-3-yl)-3-oxoisoindolin-5-yl)methyl (4-cyclobutyl-2-fluorophenyl)carbamate]: 100 to 1000 nM; for `COC(=O)C12CC(NC(=O)OCc3ccc4c(c3)C(=O)N(C3CCC(=O)NC3=O)C4)(C1)C2` (stereo not drawn) [Compound 203, methyl 3-((((2-(2,6-dioxopiperidin-3-yl)-3-oxoisoindolin-5-yl)methoxy)carbonyl)amino)bicyclo[1.1.1]pentane-1-carboxylate]: 100 to 1000 nM; for `Cc1cc(F)c(NC(=O)OCc2ccc3c(c2)C(=O)N(C2CCC(=O)NC2=O)C3)c(F)c1` (stereo not drawn) [Compound 166, (2-(2,6-dioxopiperidin-3-yl)-3-oxoisoindolin-5-yl)methyl (2,6-difluoro-4-methylphenyl)carbamate]: less than 100 nM.
On the same count and under the same terms, the same measure for `CC(C)(O)c1ccc(NC(=O)OCc2ccc3c(c2)C(=O)N(C2CCC(=O)NC2=O)C3)cn1` (stereo not drawn) [Compound 199, (2-(2,6-dioxopiperidin-3-yl)-3-oxoisoindolin-5-yl)methyl (6-(2-hydroxypropan-2-yl)pyridin-3-yl)carbamate]: 100 to 1000 nM; for `Cc1cc(F)c(NC(=O)OCc2ccc3c(c2)C(=O)N(C2CCC(=O)NC2=O)C3)cc1OC(F)(F)F` (stereo not drawn) [Compound 204, (2-(2,6-dioxopiperidin-3-yl)-3-oxoisoindolin-5-yl) methyl (2-fluoro-4-methyl-5-(trifluoromethoxy)phenyl)carbamate]: 100 to 1000 nM.
Still for that read-out and setting: the same measure for `Cc1cc(F)c(NC(=O)OCc2ccc3c(c2)C(=O)N(C2CCC(=O)NC2=O)C3)cc1Br` (stereo not drawn) [Compound 197, (2-(2,6-dioxopiperidin-3-yl)-3-oxoisoindolin-5-yl)methyl (5-bromo-2-fluoro-4-methylphenyl)carbamate]: less than 100 nM; for `O=C1CCC(N2Cc3ccc(COC(=O)Nc4cc(OC(F)(F)F)c(F)cc4F)cc3C2=O)C(=O)N1` (stereo not drawn) [Compound 200, (2-(2,6-dioxopiperidin-3-yl)-3-oxoisoindolin-5-yl)methyl (2,4-difluoro-5-(trifluoromethoxy)phenyl)carbamate]: 100 to 1000 nM.
With `O=C1CCC(N2Cc3ccc(COC(=O)Nc4cc(F)c5c(c4)CCO5)cc3C2=O)C(=O)N1` (stereo not drawn) [Compound 212, (2-(2,6-dioxopiperidin-3-yl)-3-oxoisoindolin-5-yl)methyl (7-fluoro-2,3-dihydrobenzofuran-5-yl)carbamate], the IC50 is less than 100 nM.
In the case of `CCCOc1cc(NC(=O)OCc2ccc3c(c2)C(=O)N(C2CCC(=O)NC2=O)C3)c(F)cc1C` (stereo not drawn) [Compound 231, (2-(2,6-dioxopiperidin-3-yl)-3-oxoisoindolin-5-yl)methyl (2-fluoro-4-methyl-5-propoxyphenyl)carbamate], the 50% inhibitory concentration (IC50) is less than 100 nM.
Take `CC(C)(O)c1ccc(NC(=O)OCc2ccc3c(c2)C(=O)N(C2CCC(=O)NC2=O)C3)cc1` (stereo not drawn) [Compound 195, (2-(2,6-dioxopiperidin-3-yl)-3-oxoisoindolin-5-yl)methyl (4-(2-hydroxypropan-2-yl)phenyl)carbamate]: the 50% inhibitory concentration (IC50) lay in the range of 100 to 1000 nM.
On the same count and under the same terms, for `COc1cc(NC(=O)OCc2ccc3c(c2)C(=O)N(C2CCC(=O)NC2=O)C3)c(F)cc1C` (stereo not drawn) [Compound 229, (2-(2,6-dioxopiperidin-3-yl)-3-oxoisoindolin-5-yl)methyl (2-fluoro-5-methoxy-4-methylphenyl)carbamate] the value was less than 100 nM; for `O=C1CCC(N2Cc3ccc(COC(=O)NC45C6C7C4C4C5C6C74c4ccccc4)cc3C2=O)C(=O)N1` (stereo not drawn) [Compound 225, (2-(2,6-dioxopiperidin-3-yl)-3-oxoisoindolin-5-yl)methyl (4-phenylcuban-1-yl)carbamate], less than 100 nM.
The same measure, in the same setting: for `Cc1cc(F)c(NC(=O)OCc2ccc3c(c2)C(=O)N(C2CCC(=O)NC2=O)C3)cc1F` (stereo not drawn) [Compound 213, (2-(2,6-dioxopiperidin-3-yl)-3-oxoisoindolin-5-yl)methyl (2,5-difluoro-4-methylphenyl)carbamate] the value was less than 100 nM; for `O=C1CCC(N2Cc3ccc(COC(=O)NC45CC(c6ccccc6F)(C4)C5)cc3C2=O)C(=O)N1` (stereo not drawn) [Compound 174, (2-(2,6-dioxopiperidin-3-yl)-3-oxoisoindolin-5-yl)methyl (3-(2-fluorophenyl)bicyclo[1.1.1]pentan-1-yl) carbamate], less than 100 nM.
As for `Cc1ccc(NC(=O)OCc2ccc3c(c2)C(=O)N(C2CCC(=O)NC2=O)C3)c(F)c1Cl` (stereo not drawn) [Compound 179, (2-(2,6-dioxopiperidin-3-yl)-3-oxoisoindolin-5-yl) methyl (3-chloro-2-fluoro-4-methylphenyl)carbamate], the IC50 lay within 100 to 1000 nM.
Still for that read-out and setting: for `CCOc1ccc(F)c(NC(=O)OCc2ccc3c(c2)C(=O)N(C2CCC(=O)NC2=O)C3)c1` (stereo not drawn) [Compound 223, (2-(2,6-dioxopiperidin-3-yl)-3-oxoisoindolin-5-yl)methyl (5-ethoxy-2-fluorophenyl)carbamate] the value was less than 100 nM; for `CC(C)(C)Oc1ccc(F)c(NC(=O)OCc2ccc3c(c2)C(=O)N(C2CCC(=O)NC2=O)C3)c1` (stereo not drawn) [Compound 222, (2-(2,6-dioxopiperidin-3-yl)-3-oxoisoindolin-5-yl)methyl (5-(tert-butoxy)-2-fluorophenyl)carbamate], 100 to 1000 nM.
Regarding `Cc1ccc(NC(=O)OCc2ccc3c(c2)C(=O)N(C2CCC(=O)NC2=O)C3)nc1Cl` (stereo not drawn) [Compound 183, (2-(2,6-dioxopiperidin-3-yl)-3-oxoisoindolin-5-yl)methyl (6-chloro-5-methylpyridin-2-yl)carbamate], the IC50 lay within 100 to 1000 nM.
On the same count and under the same terms, the same measure for `O=C1CCC(N2Cc3ccc(COC(=O)NC45CC(N6CCOCC6)(C4)C5)cc3C2=O)C(=O)N1` (stereo not drawn) [Compound 215, (2-(2,6-dioxopiperidin-3-yl)-3-oxoisoindolin-5-yl)methyl (3-morpholinobicyclo[1.1.1]pentan-1-yl)carbamate]: 100 to 1000 nM.
